The text below walks through data of ChEMBL document CHEMBL1132200, “Novel adrenoceptor antagonists with a tricyclic pyrrolodipyridazine skeleton” (J Med Chem, 1999).

The target of experiment [1] is T1, 5-hydroxytryptamine receptor 1A (Rattus norvegicus, UniProt P19327).
T1 sequence (P19327 whole entry): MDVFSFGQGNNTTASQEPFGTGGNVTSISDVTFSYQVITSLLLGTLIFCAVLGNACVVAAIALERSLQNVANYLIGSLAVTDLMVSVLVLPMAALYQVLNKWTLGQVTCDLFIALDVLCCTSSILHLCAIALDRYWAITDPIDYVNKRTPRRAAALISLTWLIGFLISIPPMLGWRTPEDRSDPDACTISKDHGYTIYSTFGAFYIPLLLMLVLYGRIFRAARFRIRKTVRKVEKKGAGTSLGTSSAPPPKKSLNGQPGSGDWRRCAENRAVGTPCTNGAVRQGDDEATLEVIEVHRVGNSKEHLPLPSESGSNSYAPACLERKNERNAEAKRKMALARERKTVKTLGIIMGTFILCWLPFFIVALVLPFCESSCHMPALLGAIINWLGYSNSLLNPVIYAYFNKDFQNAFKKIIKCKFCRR
Put plainly: The compound was tested for binding affinity on [3H]8-OH-DPAT as specific ligand on 5-hydroxytryptamine 1A receptor in rat hippocampus. It is filed as tissue-based.

The target in experiment [2] is T2, Alpha-1D adrenergic receptor (Homo sapiens, UniProt P25100).
T2 sequence (P25100 whole entry): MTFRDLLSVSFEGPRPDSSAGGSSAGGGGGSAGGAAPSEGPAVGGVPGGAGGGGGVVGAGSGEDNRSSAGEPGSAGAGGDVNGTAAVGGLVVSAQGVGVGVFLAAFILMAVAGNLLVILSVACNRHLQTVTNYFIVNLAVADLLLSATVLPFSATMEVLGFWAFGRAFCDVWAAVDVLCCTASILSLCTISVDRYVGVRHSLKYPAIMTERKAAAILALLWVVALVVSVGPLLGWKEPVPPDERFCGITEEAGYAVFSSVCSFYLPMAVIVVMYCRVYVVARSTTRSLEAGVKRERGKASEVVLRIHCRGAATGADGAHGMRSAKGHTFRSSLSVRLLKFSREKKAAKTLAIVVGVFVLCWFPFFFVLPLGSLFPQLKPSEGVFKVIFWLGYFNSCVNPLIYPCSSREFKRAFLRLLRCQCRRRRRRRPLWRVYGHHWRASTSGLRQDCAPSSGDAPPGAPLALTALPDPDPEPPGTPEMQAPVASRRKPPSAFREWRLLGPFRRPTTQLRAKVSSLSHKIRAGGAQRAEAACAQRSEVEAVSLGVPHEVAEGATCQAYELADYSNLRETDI
Put plainly: The compound was tested for binding affinity on [3H]- prazosin as specific ligand on Human cloned alpha-1D adrenergic receptor in CHO cells. Type of experiment: cell-based.

Experiment [3] deals with T3, Alpha-1A adrenergic receptor (Homo sapiens, UniProt P35348).
T3 sequence (P35348 whole entry): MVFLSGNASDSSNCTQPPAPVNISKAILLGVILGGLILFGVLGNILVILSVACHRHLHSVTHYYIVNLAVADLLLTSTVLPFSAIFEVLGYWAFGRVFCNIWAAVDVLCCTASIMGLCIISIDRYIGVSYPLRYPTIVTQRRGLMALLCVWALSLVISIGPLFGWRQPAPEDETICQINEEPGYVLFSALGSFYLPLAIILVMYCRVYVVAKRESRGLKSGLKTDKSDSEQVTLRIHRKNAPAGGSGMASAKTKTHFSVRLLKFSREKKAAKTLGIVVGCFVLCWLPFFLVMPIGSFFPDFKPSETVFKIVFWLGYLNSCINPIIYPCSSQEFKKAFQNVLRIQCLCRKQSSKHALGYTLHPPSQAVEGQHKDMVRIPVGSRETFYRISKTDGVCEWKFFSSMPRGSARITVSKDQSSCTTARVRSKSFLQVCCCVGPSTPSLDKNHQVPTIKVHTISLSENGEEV
Put plainly: The compound was tested for binding affinity on [3H]- prazosin as specific ligand on Human cloned alpha-1A adrenergic receptor expressed in CHO cells. Type of experiment: cell-based.

In experiment [4] the target is T4, Alpha-1B adrenergic receptor (Homo sapiens, UniProt P35368).
T4 sequence (P35368 whole entry): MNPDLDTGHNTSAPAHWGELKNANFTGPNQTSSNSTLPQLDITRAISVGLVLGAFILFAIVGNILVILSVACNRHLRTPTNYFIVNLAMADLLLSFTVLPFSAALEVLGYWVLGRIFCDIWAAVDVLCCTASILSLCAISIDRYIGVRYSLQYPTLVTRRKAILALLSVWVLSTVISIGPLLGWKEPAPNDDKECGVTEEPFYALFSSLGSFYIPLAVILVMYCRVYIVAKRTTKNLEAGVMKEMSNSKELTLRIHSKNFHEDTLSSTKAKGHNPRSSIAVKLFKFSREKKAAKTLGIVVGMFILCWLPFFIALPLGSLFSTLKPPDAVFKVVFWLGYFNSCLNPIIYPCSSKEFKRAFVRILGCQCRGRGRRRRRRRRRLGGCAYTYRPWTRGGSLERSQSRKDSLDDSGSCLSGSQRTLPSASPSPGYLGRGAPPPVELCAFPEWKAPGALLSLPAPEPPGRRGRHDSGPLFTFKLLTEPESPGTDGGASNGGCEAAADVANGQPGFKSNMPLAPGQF
The experiment in a line: The compound was tested for binding affinity on [3H]- prazosin as specific ligand on Human cloned alpha-1B adrenergic receptor in CHO cells. Type of experiment: cell-based.

A short description of experiment [5]: Ratio of the binding affinities against 5-HT1A and alpha-1-adrenoceptor from rat brain membranes. It is filed as cell membranes. To be noted: Membrane.
Experiment [6] concerns the target T5, Adrenergic receptor alpha-1 (Rattus norvegicus, UniProt P15823+P23944+P43140).
T5 sequence (P15823 whole entry): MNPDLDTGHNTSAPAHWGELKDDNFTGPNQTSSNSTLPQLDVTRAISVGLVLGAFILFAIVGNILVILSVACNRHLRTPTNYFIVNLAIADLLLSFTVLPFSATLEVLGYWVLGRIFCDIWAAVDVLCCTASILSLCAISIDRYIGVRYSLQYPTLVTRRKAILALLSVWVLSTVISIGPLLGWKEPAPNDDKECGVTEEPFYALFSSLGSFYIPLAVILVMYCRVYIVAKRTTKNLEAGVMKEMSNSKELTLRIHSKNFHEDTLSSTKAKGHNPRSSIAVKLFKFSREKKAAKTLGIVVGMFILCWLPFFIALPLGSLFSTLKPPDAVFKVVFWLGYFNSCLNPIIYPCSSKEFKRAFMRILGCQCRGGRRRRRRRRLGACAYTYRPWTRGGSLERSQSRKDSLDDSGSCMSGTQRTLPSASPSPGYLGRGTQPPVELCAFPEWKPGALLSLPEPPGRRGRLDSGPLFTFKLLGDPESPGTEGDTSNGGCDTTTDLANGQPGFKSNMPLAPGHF
T5 sequence (P23944 whole entry): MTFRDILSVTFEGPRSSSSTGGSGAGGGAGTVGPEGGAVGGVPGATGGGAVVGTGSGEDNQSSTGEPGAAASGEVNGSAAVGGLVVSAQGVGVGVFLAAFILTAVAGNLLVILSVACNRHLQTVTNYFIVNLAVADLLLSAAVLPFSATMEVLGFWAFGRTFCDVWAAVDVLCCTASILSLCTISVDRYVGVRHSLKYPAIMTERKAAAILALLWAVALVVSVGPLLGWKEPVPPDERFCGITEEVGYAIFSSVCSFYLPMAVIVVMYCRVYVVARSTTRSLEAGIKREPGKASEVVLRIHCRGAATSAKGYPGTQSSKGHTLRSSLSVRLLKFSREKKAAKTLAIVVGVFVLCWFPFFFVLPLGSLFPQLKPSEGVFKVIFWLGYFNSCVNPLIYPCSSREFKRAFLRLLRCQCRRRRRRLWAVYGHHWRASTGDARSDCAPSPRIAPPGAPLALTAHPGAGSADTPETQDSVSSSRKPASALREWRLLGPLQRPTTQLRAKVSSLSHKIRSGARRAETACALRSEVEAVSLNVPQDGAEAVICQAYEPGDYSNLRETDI
T5 sequence (P43140 whole entry): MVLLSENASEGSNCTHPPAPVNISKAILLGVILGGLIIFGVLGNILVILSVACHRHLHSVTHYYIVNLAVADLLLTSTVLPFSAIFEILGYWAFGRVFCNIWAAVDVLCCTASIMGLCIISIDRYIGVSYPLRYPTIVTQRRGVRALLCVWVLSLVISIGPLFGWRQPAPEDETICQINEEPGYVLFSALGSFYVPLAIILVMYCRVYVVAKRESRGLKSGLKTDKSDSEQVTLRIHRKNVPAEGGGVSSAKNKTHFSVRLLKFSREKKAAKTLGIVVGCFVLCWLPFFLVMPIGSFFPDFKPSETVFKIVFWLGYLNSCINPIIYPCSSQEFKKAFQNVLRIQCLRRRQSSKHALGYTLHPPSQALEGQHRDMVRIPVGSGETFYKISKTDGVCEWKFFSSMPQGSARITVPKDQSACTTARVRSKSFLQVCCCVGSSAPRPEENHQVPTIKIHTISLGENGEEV
The experiment in a line: The compound was tested for binding affinity on [3H]- prazosin as specific ligand on alpha-1 adrenergic receptor cells in rat cerebral cortex. Type of experiment: tissue-based.

The term Ki denotes the equilibrium dissociation constant of an inhibitor or competing ligand from its target. A low value points to a stronger hold on the target. On to `COc1ccccc1N1CCN(CCn2nc(-c3ccccc3)c(C(C)=O)c(N)c2=O)CC1`, for which the Ki in experiment [1] stood at 123 nM; in experiment [2], 0.93 nM; in experiment [3] it was 4.75 nM; in experiment [4], 22.1 nM; in experiment [6], 24.6 nM. For the same compound, the Ratio in experiment [5] came to 5.01.
For `COc1ccccc1N1CCN(CCNc2ccc3c4c(=O)n(C)nc(Cl)c4cn3n2)CC1`, the Ki in experiment [1] was 16.3 nM; in experiment [2], 3.04 nM; in experiment [3], 1.1 nM; in experiment [4], 15.2 nM; in experiment [6], 73.3 nM. The Ratio in experiment [5] came to 0.22.
For `Cn1nc(Cl)c2cn3nc(NCCN4CCN(c5ccccc5Cl)CC4)ccc3c2c1=O`, the Ki is 56.5 nM in experiment [1]; 11.9 nM in experiment [2]; 5.93 nM in experiment [3]; 13.6 nM in experiment [4]; 54.6 nM in experiment [6]. The Ratio in experiment [5] came out at 1.03.
As to `Cn1nc(Cl)c2cn3nc(NCCN4CCN(c5ccccc5)CC4)ccc3c2c1=O`, the Ki is 21.2 nM in experiment [1]; 6.56 nM in experiment [2]; 1.93 nM in experiment [3]; 15.6 nM in experiment [4]; 129.2 nM in experiment [6]. For the same compound, in experiment [5], the Ratio was determined as 0.16.
